Assay results as given in patent US9399625B2, “Acridone compounds” (Oregon Health & Science University, priority 2006, dated 2016).
Entries after “also recorded” stand apart in the source; their conditions may differ. Read-outs that look alike come from different tables or passages of the source.

Assays:
[1] = molecular target: T1, recombinant human norepinephrine transporter (hNET) (Homo sapiens, UniProt P23975); assay: [125I]RTI-55 binding, HEK-hNET
T1 construct: expressed in transfected cells

[2] = test system: CQ-sensitive D6 strain of P. falciparum; assay: In vitro antimalarial activity, SYBR Green MSF assay, D6; assay type: cell-based; details: Plasmodium falciparum, D6
Source text: This example describes the screening of disclosed antimalarial acridones against the CQ-sensitive D6 strain and the MDR Dd2 strain of P. falciparum for in vitro antimalarial activity.

[3] = molecular target: T2, recombinant human serotonin transporter (hSERT) (Homo sapiens, UniProt P31645); assay: [125I]RTI-55 binding, HEK-hSERT
T2 construct: expressed in transfected cells

P. yoelii = assay: Hemozoin in PRBCs of treated infected mice; assay type: in vivo
Procedure: (§1) P. falciparum Dd2 MDR parasited red cells were synchronized to the ring stage by sorbitol lysis and incubated the cells in the presence or absence of 300 nM T3.5. […] P. yoelii infected mice treated with T3.5 harbor PRBCs that lack hemozoin. Taken together these observations are consistent with the notion that T3.5 blocks hemozoin formation in infected cells.

[4] = molecular target: T3, recombinant human dopamine transporter (hDAT) (Homo sapiens, UniProt Q01959); assay: [125I]RTI-55 binding, HEK-hDAT
T3 construct: expressed in transfected cells

[5] = Metabolic stability and fate in hepatic S9 fraction with NADPH; assay type: in vitro ADME, murine; details: 50 μM, NADPH 1 mM, 10, 30 and 60 min
Procedure: This example investigates the metabolic stability and fate of T3.5 in the presence of NADPH and a murine hepatic S9 fraction. Hepatic S-9 fractions were incubated with 50 μM T3.5 in the presence of NADPH (1 mM) for 10, 30 and 60 min. HPLC was conducted with a Hypersil Gold column that is stable at high pH. […] The full scan mass spectrum had the isotopic ratio expected for the chlorine substituted acridone ring. […] The two unresolved peaks most likely represent de-ethylation of the tertiary amine on each side chain.
A second de-ethylation also occurred with the prolonged incubation as evidenced by the peak at 17.5 min when monitored at m/z 388.1 (loss of m/z=56). Another dealkylated metabolite was monitored at m/z 345.1 and corresponds to the loss of the triethylamine side chain (loss of m/z=99) from the acridone ring. The dealkylation could occur from either the aryl ether side chain or from the acridone ring nitrogen. The later would result in the production of the active compound T2. […] In addition to the dealkylated products, a hydroxylated metabolite was also detected by monitoring at m/z 460.2 (addition of m/z=16). The hydroxylation could occur on the acridone ring or on one of the primary carbons on the ethylamine side chains. Further MS/MS experiments will help establish the site of hydroxylation.

P. yoelii (K) = assay: Curative efficacy vs patent infection, three once-daily doses (adapted 6-day Thompson test); details: ig, three once-daily doses
P. falciparum Dd2 MDR = assay: Morphology of synchronized Dd2 parasitized red cells; assay type: cell-based; details: 300 nM; 36 hours of incubation; vs controls
Procedure: as §1

[6] = test system: CQ-sensitive P. falciparum D6; assay: Fixed-ratio combination (isobologram) with quinine, D6; assay type: cell-based; details: isobolar analysis
Procedure: In one embodiment, synergism is assessed herein using fixed-ratio combinations that provide information over a wide range of drug concentrations. In this method, the two drugs are mixed in an appropriate ratio, serial dilutions of the combined solution are used for testing, and results compared to each drug alone. Specifically, to determine synergy, the acridone is tested in combination with a second drug using a modification of the fixed-ratio method described by Fivelman et al. (See, Fivelman et al., Antimicrob. Agents Chemother. 48, 4097-4102 (2004) and Winter et al., Antimicrob. Agents Chemother. 41, 1449-1454 (1997), both references incorporated herein, in their entirety, by reference). […] If these stock solutions were termed Drug A and Drug B, then six final stock solutions were prepared from this initial stock: Drug A alone, Drug B alone, and volume:volume mixtures of Drug A and B in the following ratios: 4:1, 3:2, 2:3, and 1:4. Two-fold dilutions of each of the six final stock solutions were done robotically across a 96-well plate in quadruplicate. […] The data pointed from all six curves were then analyzed using Calcusyn software (commercially available from BioSoft, Cambridge, UK) for determination of synergy. Output from this analysis included FIC values used to plot isobolograms as well as a rigorously determined synergy index, termed the combination index (CI) (Calcusyn). […]

MDR P. falciparum Dd2 = assay: Fixed-ratio combination (isobologram) with quinoline antimalarials, Dd2; assay type: cell-based
Procedure: In one embodiment, synergism is assessed herein using fixed-ratio combinations that provide information over a wide range of drug concentrations. […] If these stock solutions were termed Drug A and Drug B, then six final stock solutions were prepared from this initial stock: Drug A alone, Drug B alone, and volume:volume mixtures of Drug A and B in the following ratios: 4:1, 3:2, 2:3, and 1:4. Two-fold dilutions of each of the six final stock solutions were done robotically across a 96-well plate in quadruplicate. Subsequent steps were typical of standard drug-susceptibility methods. […] The data pointed from all six curves were then analyzed using Calcusyn software (commercially available from BioSoft, Cambridge, UK) for determination of synergy. Output from this analysis included FIC values used to plot isobolograms as well as a rigorously determined synergy index, termed the combination index (CI) (Calcusyn). FIC50 isobolograms, CI's and tabulation of IC90 component drug concentrations were reported.
The combinations of the acridones T3.5 and T2 with quinine were assessed for synergism.
FIG. 6 is an isobologram charting the efficacy of quinine in combination with T3.5 in vitro against CQ-sensitive (D6) and MDR (Dd2) P. falciparum.

[7] = Heme-binding affinity (spectrophotometric titration); details: Table 4
Source text: With continued reference to FIG. 1, panel B illustrates the spectrophotometric titration curve of the heme:3,6-bis-ε-(N,N-diethylamino)-amyloxy xanthone (C5) complex. The apparent binding constant was derived from the best fit (solid line) of a 1:1 (heme dimer:C5) association model. […] Panels A and B show the fluorescence localization of C5 and LysoTracker Red, respectively.

T2 sequence (P31645 whole entry): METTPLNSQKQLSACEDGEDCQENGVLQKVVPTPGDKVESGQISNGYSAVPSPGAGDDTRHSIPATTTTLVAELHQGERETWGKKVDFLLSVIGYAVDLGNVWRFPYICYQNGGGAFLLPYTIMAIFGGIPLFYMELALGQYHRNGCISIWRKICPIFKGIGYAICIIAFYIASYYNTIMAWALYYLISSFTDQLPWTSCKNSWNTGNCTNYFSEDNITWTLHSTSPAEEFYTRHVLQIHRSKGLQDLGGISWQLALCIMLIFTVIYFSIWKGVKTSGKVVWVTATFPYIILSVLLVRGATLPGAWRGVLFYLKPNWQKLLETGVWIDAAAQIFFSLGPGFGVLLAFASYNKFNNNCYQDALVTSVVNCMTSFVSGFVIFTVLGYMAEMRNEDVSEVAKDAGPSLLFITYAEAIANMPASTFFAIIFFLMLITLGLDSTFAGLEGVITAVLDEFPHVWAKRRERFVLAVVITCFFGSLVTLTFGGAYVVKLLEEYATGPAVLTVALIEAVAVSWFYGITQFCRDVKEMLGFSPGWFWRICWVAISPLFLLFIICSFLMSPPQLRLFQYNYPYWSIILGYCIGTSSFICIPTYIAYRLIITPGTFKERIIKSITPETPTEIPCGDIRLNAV
T3 sequence (Q01959 whole entry): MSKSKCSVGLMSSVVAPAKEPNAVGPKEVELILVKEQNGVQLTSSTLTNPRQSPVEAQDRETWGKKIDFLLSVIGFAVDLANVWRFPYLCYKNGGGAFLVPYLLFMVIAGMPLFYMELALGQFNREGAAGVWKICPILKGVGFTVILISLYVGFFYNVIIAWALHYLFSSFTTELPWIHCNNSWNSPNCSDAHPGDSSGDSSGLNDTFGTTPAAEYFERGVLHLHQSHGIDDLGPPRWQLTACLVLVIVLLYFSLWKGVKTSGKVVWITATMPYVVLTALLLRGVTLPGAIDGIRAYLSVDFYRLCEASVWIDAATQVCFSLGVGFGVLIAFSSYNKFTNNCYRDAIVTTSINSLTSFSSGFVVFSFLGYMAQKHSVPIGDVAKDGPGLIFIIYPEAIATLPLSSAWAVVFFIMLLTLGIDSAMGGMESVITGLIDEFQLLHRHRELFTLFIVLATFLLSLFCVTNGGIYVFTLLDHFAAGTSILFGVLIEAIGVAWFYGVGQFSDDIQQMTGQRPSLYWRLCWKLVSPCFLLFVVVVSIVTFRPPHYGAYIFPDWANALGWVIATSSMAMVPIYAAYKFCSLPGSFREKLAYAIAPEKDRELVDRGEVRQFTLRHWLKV
T1 sequence (P23975 whole entry): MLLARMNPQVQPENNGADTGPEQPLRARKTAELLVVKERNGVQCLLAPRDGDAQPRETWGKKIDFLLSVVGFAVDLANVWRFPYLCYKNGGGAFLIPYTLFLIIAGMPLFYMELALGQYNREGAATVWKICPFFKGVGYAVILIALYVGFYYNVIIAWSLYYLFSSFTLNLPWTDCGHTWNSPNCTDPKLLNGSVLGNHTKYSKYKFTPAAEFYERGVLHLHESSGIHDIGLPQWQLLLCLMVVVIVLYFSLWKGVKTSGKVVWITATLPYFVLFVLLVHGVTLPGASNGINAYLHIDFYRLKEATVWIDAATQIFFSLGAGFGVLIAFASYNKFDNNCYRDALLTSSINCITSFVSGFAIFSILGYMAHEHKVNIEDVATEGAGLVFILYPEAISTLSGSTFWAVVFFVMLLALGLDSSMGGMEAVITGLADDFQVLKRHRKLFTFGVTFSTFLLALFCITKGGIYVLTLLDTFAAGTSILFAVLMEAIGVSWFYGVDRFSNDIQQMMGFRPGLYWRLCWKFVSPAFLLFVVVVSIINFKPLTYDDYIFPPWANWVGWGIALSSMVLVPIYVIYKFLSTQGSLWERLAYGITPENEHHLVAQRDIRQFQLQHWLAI

CCN(CC)CCOc1ccc2c(=O)c3ccc(Cl)cc3n(CCN(CC)CC)c2c1 [T3.5, 3-(2-diethylaminoethoxy)-6-chloro-10-(2-diethylaminoethyl)-9-acridone]
Ki [1]: > 10000 nM
IC50 ([2]; Table 2, average of 4 independent experiments, read-out: IC50, D6): 50 nM
IC50 ([2]; Table 4, read-out: IC50 P. falciparum D6): 44 nM
Ki [3]: 2290 nM
hemozoin in PRBCs (P. yoelii): lack hemozoin
Ki [4]: > 10000 nM
most abundant metabolites [5]: de-ethylated products
ED50 and ED90, gavage (ig) dosing, in words (P. yoelii (K)): comparable
visible hemozoin (P. falciparum Dd2 MDR): markedly diminished
interaction with quinine [6]: synergism
interaction with CQ (MDR P. falciparum Dd2; isobolar analysis): synergistic
interaction with amodiaquine (MDR P. falciparum Dd2; isobolar analysis): synergistic
interaction with mefloquine (MDR P. falciparum Dd2; isobolar analysis): not
interaction with quinine (MDR P. falciparum Dd2; isobolar analysis): synergism; also recorded: synergistic
T3.5 concentration giving 90% growth inhibition in combination (MDR P. falciparum Dd2; with 7-70 nM quinine): 20 to 200 nM
Heme-binding Ka [7]: 7.1 10^4 M^−1
